The source of these data is US5622967A, “Quinolone carboxamide Calpain inhibitors” (Sterling Winthrop, Inc., priority 1995, dated 1997).

For orientation: pIC50 means −log10 of the IC50, conventionally taken in molar units.

Each structure is given as a SMILES string. pIC50: −log10 of the molar value.

This experiment deals with T1, human calpain I (Homo sapiens, UniProt P07384).
T1 construct: The isolation of calpain from human erythrocytes was similar to that described by Wang et al. (1988); from tissue; host or cells: human red blood cells (packed red cells, American Red Cross); partially purified on DEAE-Sephacel and phenyl-Sepharose CL-4B
T1 sequence (P07384 1-714): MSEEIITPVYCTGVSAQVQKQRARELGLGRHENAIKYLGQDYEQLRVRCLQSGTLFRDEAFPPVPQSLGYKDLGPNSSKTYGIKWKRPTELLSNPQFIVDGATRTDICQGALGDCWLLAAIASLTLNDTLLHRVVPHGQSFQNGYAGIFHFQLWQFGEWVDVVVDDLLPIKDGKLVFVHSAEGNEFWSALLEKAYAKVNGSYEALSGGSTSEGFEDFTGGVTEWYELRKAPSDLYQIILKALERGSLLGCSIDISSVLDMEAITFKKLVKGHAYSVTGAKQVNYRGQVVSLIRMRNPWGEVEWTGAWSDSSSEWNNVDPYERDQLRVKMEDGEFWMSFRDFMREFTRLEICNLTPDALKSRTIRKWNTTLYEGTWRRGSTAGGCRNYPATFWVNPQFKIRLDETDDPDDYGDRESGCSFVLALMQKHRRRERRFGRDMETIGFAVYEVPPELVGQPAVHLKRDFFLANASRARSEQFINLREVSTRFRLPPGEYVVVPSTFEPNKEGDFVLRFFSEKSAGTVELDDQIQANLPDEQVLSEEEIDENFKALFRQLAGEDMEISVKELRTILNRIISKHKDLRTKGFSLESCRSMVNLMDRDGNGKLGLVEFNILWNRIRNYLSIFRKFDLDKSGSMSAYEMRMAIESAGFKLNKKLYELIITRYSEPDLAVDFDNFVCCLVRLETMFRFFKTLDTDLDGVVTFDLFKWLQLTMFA
T1 sequence (P04632 1-268 partner): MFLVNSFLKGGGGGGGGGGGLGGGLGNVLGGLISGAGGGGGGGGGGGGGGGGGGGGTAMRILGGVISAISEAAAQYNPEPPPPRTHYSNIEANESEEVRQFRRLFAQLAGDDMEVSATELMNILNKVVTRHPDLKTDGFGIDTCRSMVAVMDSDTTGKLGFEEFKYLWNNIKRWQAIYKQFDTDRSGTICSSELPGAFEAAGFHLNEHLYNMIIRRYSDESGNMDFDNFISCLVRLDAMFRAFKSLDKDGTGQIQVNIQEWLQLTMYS
As to the kind of experiment: Calpain I Inhibition Assay (3H-acetyl casein degradation). The class given is biochemical. Particulars: human erythrocyte calpain I; 3H-acetyl Casein substrate; 25° C., 2 hours incubation; read-out: IC50 against human calpain I. On the procedure: Compounds of the present invention were tested for calpain I inhibition activity using the following assay method.
Calpain I InhibitionAssay
Isolation of Human erythrocyte Calpain I
Human red blood cells were obtained from the Northeastern New York Chapter of the American Red Cross. The isolation of calpain from human erythrocytes was similar to that described by Wang et al. (1988). One unit of in-dated packed red cells was diluted with an equal volume of diluting/wash solution and centrifuged. The supernatant was removed and the procedure was repeated. The washed cells were pooled, lysed with 700 mL of lysing solution and centrifuged to remove cell debris. The membrane-free hemolysate was added to 500 mL DEAE-sephacel and the slurry was stirred gently at 4° C. for 1 hour.
Batch elution was done using DEAE-sephacel wash solution to remove a large amount of unwanted protein, most of which was hemoglobin. The slurry was poured into a column connected in tandem to a phenyl-sepharose CL-4B column. Material eluted from the DEAE-sephacel was applied directly to the phenyl-sepharose CL-4B. The phenyl-sepharose CL-4B column was washed first with 75 mM NaCl and then with no salt. Calpain begins to disassociate from the […] with the 75 mM NaCl but the majority should adhere to the column until the salt is removed. Fractions were collected (20 mL), assayed for caseinolytic activity with and without calpastatin and pooled accordingly. The pooled fractions were concentrated using an Amicon stirred cell equipped with a YK-10 membrane. Calpain was stored at 4° C. with 10 mM EDTA and 5 mM 2-mercaptoethanol and is stable for at least 6 months.
The tritated assay is a modification of that described by Gopalakrishna, R. and Barsky, S.H., Anal. Biochem., 148, 413,1985. All reagents, compound 25 ul, HEPES buffer 25 ul, CaCl2 50 ul, enzyme 50 ul, and ^3 H-acetyl Casein, were combined in 1 mL polystyrene titer plates. The plates were preincubated at 25° C. for 5 min with gentle shaking prior to the addition of substrate. The incubation was continued for an additional 2 hours and was terminated with the addition of 0.5 mL ice cold 5% TCA. Unlabled casein was added, samples were centrifuged and 0.5 mL of the supernatant was counted in 5 mL of Ready Protein liquid scintillation cocktail for 2 min. This assay measures ^3 H-acetyl Casein degradation as an endpoint for calpain activity.
As to `NC(=O)c1cn(-c2ccc(O)cc2)c2cc(-c3ccncc3)ccc2c1=O` [Example 1, 1,4-Dihydro-1-(4-hydroxyphenyl)-4-oxo-7-(4-pyridinyl)=3-quinolinecarboxamide], the pIC50 is 5.70.
On to `NC(=O)c1cn(-c2ccc(O)c(O)c2)c2cc(-c3ccncc3)ccc2c1=O` [Example 2, 1,4,Dihydro-1-(3.4-dihydroxyphenyl)-4-oxo-7-(4-pyridinyl),3-quinolinecarboxamide], for which the pIC50 is 5.15.
The same measure for `NC(=O)c1cn(-c2ccc(O)c(Cl)c2)c2cc(-c3ccncc3)ccc2c1=O` [Example 3, 1,4-Dihydro-1-(3-chloro-4-hydroxyphenyl)-4-oxo-7-(4-pyridinyl)-3-quinolinecarboxamide]: 5.70; for `NC(=O)c1cn(-c2ccc(O)cc2F)c2cc(-c3ccncc3)ccc2c1=O` [Example 4, 1,4-Dihydro-1-(2-fluoro-4-hydroxyphenyl)-4-oxo-7-(4-pyridinyl)-3-quinolinecarboxamide]: 5.13; for `NC(=O)c1cn(-c2ccc(O)c(F)c2)c2cc(-c3ccncc3)ccc2c1=O` [Example 5, 1,4-Dihydro-1-(3-fluoro-4-hydroxyphenyl)-4-oxo-7-(4-pyridinyl)-3-quinolinecarboxamide]: 5.30.
In the case of `Cc1cc(O)ccc1-n1cc(C(N)=O)c(=O)c2ccc(-c3ccncc3)cc21` [Example 6, 1,4-Dihydro-1-(2-methyl-4-hydroxyphenyl)-4-oxo-7-(4-pyridinyl)-3-quinolinecarboxamide], the negative-log IC50 (pIC50) was 6.29.
As to `NC(=O)c1cn(-c2ccc(O)cc2C(F)(F)F)c2cc(-c3ccncc3)ccc2c1=O` [Example 7, 1,4-Dihydro-1-(2-trifluoromethyl-4-hydroxyphenyl)-4-oxo-7-(4-pyridinyl)-3-quinolinecarboxamide], the negative-log IC50 (pIC50) is 4.80.
On to `NC(=O)c1cn(-c2ccc(O)cc2Cl)c2cc(-c3ccncc3)ccc2c1=O` [Example 8, 1,4-Dihydro-1-(2-chloro-4-hydroxyphenyl)-4-oxo-7-(4-pyridinyl)-3-quinolinecarboxamide], for which the pIC50 is 6.22.
Regarding `NC(=O)c1cn(-c2ccc(O)cc2Cl)c2cc(-c3cccnc3)ccc2c1=O` [Example 9, 1,4,Dihydro-1-(2-chloro-4-hydroxyphenyl)-4-oxo-7-(3-pyridinyl)-3-quinolinecarboxamide], the pIC50 is 4.92.
With `NC(=O)c1cn(-c2ccc(O)cc2Cl)c2cc(-c3ccoc3)ccc2c1=O` [Example 10, 1,4-Dihydro-1-(2-chloro-4-hydroxyphenyl)-4-oxo-7-(3-furyl)-3-quinolinecarboxamide], the negative logarithm of the IC50 (pIC50) was 5.77.
For the compound `NC(=O)c1cn(-c2ccc(O)cc2Cl)c2cc(-c3ccncc3Cl)ccc2c1=O` [Example 11], the pIC50 is 5.77.
Turning to `NC(=O)c1cn(-c2ccc(O)cc2Cl)c2cc(-c3ccnnc3)ccc2c1=O` [Example 12, 1,4-Dihydro-1-(2-chloro-4-hydroxyphenyl)-4-oxo-7-(4-pyridazinyl)-3-quinolinecarboxamide], the negative-log IC50 (pIC50) is 5.77.
With `NC(=O)c1cn(-c2ccc(O)cc2Cl)c2cc(-c3cc[nH]n3)ccc2c1=O` [Example 13, 1,4-Dihydro-1-(2-chloro-4-hydroxyphenyl)-4-oxo-7-(3-pyrazolyl)-3-quinolinecarboxamide], the negative logarithm of the IC50 (pIC50) is 6.24.
